Source: US9580430B2, “9H-pyrimido[4,5-B]indoles and related analogs as BET bromodomain inhibitors” (THE REGENTS OF THE UNIVERSITY OF MICHIGAN, priority 2014, dated 2017)
Read-outs that look alike come from different tables or passages of the source.

Columns and labels:
recombinant BRD4 BD2 = target: T1, recombinant BRD4 BD2 (Homo sapiens, UniProt O60885); assay: Competitive fluorescence-polarization (FP) binding assay, BRD4 BD2; details: for Ki: read-out: Binding affinities (FP) BRD4BD2 Ki; on IC50 (nM) BRD4 BD2: probe 1.5 nM
T1 construct: for recombinant BRD4 BD1 and BRD4 BD2 proteins
Method: (§1) Fluorescence Polarization (FP) competitive binding studies were carried out using a FAM labeled fluorescent probe (ZBA248 or BRD-1F) to determine binding affinities of representative Compounds of the Disclosure for recombinant BRD4 BD1 and BRD4 BD2 proteins. For example, equilibrium dissociation constants (Kd) values of ZBA248 to these […] proteins were determined from protein saturation experiments by monitoring the total fluorescence polarization of mixtures composed with the fluorescent probe at a fixed concentration and proteins with increasing concentrations up to full saturation. Serial dilutions of testing protein were mixed with ZBA248 to a final volume of 200 μl in the assay buffer. […] Plates were incubated at room temperature for 30 minutes with gentle shaking to assure equilibrium. […] Kd values of ZBA248 were calculated by fitting the sigmoidal dose-dependent FP increases as a function of protein concentrations using Graphpad Prism 6.0 software (Graphpad Software, San Diego, Calif.).
(§2) The IC50 and Ki values of representative Compounds of the Disclosure were determined in a competitive binding experiment as described above. Mixtures of 10 μl of the tested compounds in assay buffer with 40% Ethylene Glycol and 190 μl of preincubated protein/probe complex solution in the assay buffer (100 mM potassium phosphate, pH 6.5, 0.01% Triton X-100) were added into assay plates which were incubated at room temperature for 30 minutes with gentle shaking. Final concentrations of proteins were 10 and 6 nM in assays for BD1 and BD2 of BRD4, respectively. […] FP values were measured as described above. IC50 values were determined by nonlinear regression fitting of the competition curves.

MDA-MB-436 = assay: Cell growth inhibition, MDA-MB-436 breast cancer cells (WST-8); type: cell-based; details: Homo sapiens, 4 days
Method: All the breast cancer cell lines were obtained from the ATCC. Cell viability was determined using the WST-8 (2-(2-methoxy-4-nitrophenyl)-3-(4-nitrophenyl)-5-(2,4-disulfophenyl)-2H-tetrazolium, monosodium salt) based Cell Counting-8 Kit (Dojindo Molecular Technologies, Inc., Rockville, Md.) according to the manufacture's instruction. […] The absorbance was measured at 450 nm using a SPECTRAmax PLUS plate reader (Molecular Devices, Sunnyvale, Calif.). The IC50 was calculated using the GraphPad Prism 5 software.

MOLM-13 = assay: Cell growth inhibition, MOLM-13 leukemia cells (CellTiter-Glo); type: cell-based; details: Homo sapiens, MOLM-13, 96 h; 4 days; read-out: IC50 (nM) MOLM-13 Cell Line (CellTiter-Glo assay)
Method: Cell growth inhibitory activity of representative Compounds of the Disclosure was determined using CellTiter-Glo® Luminescent Cell Viability Assay. […] Cell viability was determined using the CellTiter-Glo® Luminescent Cell Viability Assay Kit (Promega, Madison, Wis.) according to the manufacture's instruction. Briefly, a volume of CellTiter-Glo® Reagent equal to the volume of cell culture medium was added to each well, and then the plates were incubated at room temperature for 10-20 minutes. The luminescent signal was measured using a Tecan Infinite M1000 multimode microplate reader (Tecan, Morrisville, N.C.). The half maximal inhibitory concentration (IC50) was calculated using the GraphPad Prism 5 software (GraphPad Software, La Jolla, Calif.).

recombinant BRD4 BD1 = target: T2, recombinant BRD4 BD1 (Homo sapiens, UniProt O60885); assay: Competitive fluorescence-polarization (FP) binding assay, BRD4 BD1; details: for Ki: read-out: Binding affinities (FP) BRD4BD1 Ki; on IC50 (nM) BRD4 BD1: probe 1.5 nM
T2 construct: for recombinant BRD4 BD1 and BRD4 BD2 proteins
Method: as §1, §2

[1] = competitive FP assay, protein 6 nM, probe […], read-out: IC50 (nM) BRD4 BD2
[2] = MDA-MB-436, 96 h, read-out: IC50 (nM) MDA-MB-436 Cell Line (WST assay)
[3] = competitive FP assay, protein 10 nM, probe […], read-out: IC50 (nM) BRD4 BD1
[4] = FP competitive binding, BRD4 BD1, read-out: Binding affinities (FP) BRD4BD1 IC50
[5] = FP competitive binding, BRD4 BD1
[6] = FP competitive binding, BRD4 BD2, read-out: Binding affinities (FP) BRD4BD2 IC50
[7] = FP competitive binding, BRD4 BD2
[8] = 96 h, MDA-MB-436 cells, read-out: Cellular data MDA-MB-436 IC50

SMILES | IC50 (recombinant BRD4 BD2; [1]) [nM] | IC50 (MDA-MB-436; [2]) [nM] | IC50 (MOLM-13) [nM] | IC50 (recombinant BRD4 BD1; [3]) [nM] | IC50 (recombinant BRD4 BD1; [4]) [nM] | Ki (recombinant BRD4 BD1; [5]) [nM] | IC50 (recombinant BRD4 BD2; [6]) [nM] | Ki (recombinant BRD4 BD2; [7]) [nM] | IC50 (MDA-MB-436; [8]) [nM]
COc1cc2c(cc1-c1c(C)noc1C)[nH]c1nc(C)nc(Nc3cc(C)nn3-c3ccccc3)c12 [Cpd. No. 1, 7-(3,5-Dimethylisoxazol-4-yl)-6-methoxy-2-methyl-N-(3-methyl-1-phenyl-1H-pyrazol-5-yl)-9H-pyrimido[4,5-b]indol-4-amine] | 21.8 | 148 | 29.8 |  |  |  |  |  | 
COc1cc2c(cc1-c1c(C)noc1C)[nH]c1nc(C)nc(Nc3c[nH]nc3-c3ccccc3)c12 [Cpd. No. 2, 7-(3,5-Dimethylisoxazol-4-yl)-6-methoxy-2-methyl-N-(3-phenyl-1H-pyrazol-4-yl)-9H-pyrimido[4,5-b]indol-4-amine] | 41.9 | 246 | 68 |  |  |  |  |  | 
COc1cc2c(cc1-c1c(C)noc1C)[nH]c1nc(C)nc(Sc3nnc(C)n3C(C)C)c12 [Cpd. No. 3, 4-(4-((4-Isopropyl-5-methyl-4H-1,2,4-triazol-3-yl)thio)-6-methoxy-2-methyl-9H-pyrimido[4,5-b]indol-7-yl)-3,5-dimethylisoxazole] | 183 | 386 | 38.4 | 540 |  |  |  |  | 
COc1cc2c(cc1-c1c(C)noc1C)[nH]c1nc(C)nc(Nc3c(-c4ccccc4)nn(C(C)C)c3C)c12 [Cpd. No. 4, 7-(3,5-Dimethylisoxazol-4-yl)-N-(1-isopropyl-5-methyl-3-phenyl-1H-pyrazol-4-yl)-6-methoxy-2-methyl-9H-pyrimido[4,5-b]indol-4-amine] | 21.7 | 249 | 69.3 | 52.9 |  |  |  |  | 
COc1cc2c(cc1-c1c(C)noc1C)[nH]c1nc(C)nc(Nc3n[nH]c(C)c3-c3ccccc3)c12 [Cpd. No. 5, 7-(3,5-Dimethylisoxazol-4-yl)-6-methoxy-2-methyl-N-(5-methyl-4-phenyl-1H-pyrazol-3-yl)-9H-pyrimido[4,5-b]indol-4-amine] | 381 | 719 | 475 | 340 |  |  |  |  | 
COc1cc2c(cc1-c1c(C)noc1C)[nH]c1nc(C)nc(Nc3sc(-c4ncco4)nc3-c3ccccc3)c12 [Cpd. No. 6, N-(7-(3,5-Dimethylisoxazol-4-yl)-6-methoxy-2-methyl-9H-pyrimido[4,5-b]indol-4-yl)-2-(oxazol-2-yl)-4-phenylthiazol-5-amine] |  | 1520 | 52.6 |  |  |  |  |  | 
COc1cc2c(cc1-c1c(C)noc1C)[nH]c1nc(C)nc(Nc3nn(C)c4ccccc34)c12 [Cpd. No. 12, 7-(3,5-Dimethylisoxazol-4-yl)-6-methoxy-2-methyl-N-(1-methyl-1H-indazol-3-yl)-9H-pyrimido[4,5-b]indol-4-amine] | 28.2 | 59.6 | 15.2 |  |  |  |  |  | 
COc1cc2c(cc1-c1c(C)noc1C)[nH]c1nc(C)nc(Nc3cc(C(F)(F)F)nn3C(C)(C)C)c12 [Cpd. No. 117, N-(1-(tert-Butyl)-3-(trifluoromethyl)-1H-pyrazol-5-yl)-7-(3,5-dimethylisoxazol-4-yl)-6-methoxy-2-methyl-9H-pyrimido[4,5-b]indol-4-amine] |  | 177 | 90.9 | 62.4 |  |  |  |  | 
COc1cc2c(cc1-c1c(C)noc1C)[nH]c1nc(C)nc(Nc3nn(C)c4ccc(F)cc34)c12 [Cpd. No. 127, 7-(3,5-Dimethylisoxazol-4-yl)-N-(5-fluoro-1-methyl-1H-indazol-3-yl)-6-methoxy-2-methyl-9H-pyrimido[4,5-b]indol-4-amine] |  | 508 | 178 |  |  |  |  |  | 
COc1cc2c(cc1-c1c(C)noc1C)[nH]c1nc(C)nc(Nc3cccc4cccnc34)c12 [Cpd. No. 210, 7-(3,5-dimethylisoxazol-4-yl)-6-methoxy-2-methyl-N-(quinolin-8-yl)-9H-pyrimido[4,5-b]indol-4-amine] | > 1000 |  | 1130 | > 1000 |  |  |  |  | 
COc1cc(C)cc(Nc2nc(C)nc3[nH]c4cc(-c5c(C)noc5C)c(OC)cc4c23)c1 [Cpd. No. 218, 7-(3,5-dimethylisoxazol-4-yl)-6-methoxy-N-(3-methoxy-5-methylphenyl)-2-methyl-9H-pyrimido[4,5-b]indol-4-amine] | 15 |  | 9340 | 17 |  |  |  |  | 

More lines, now with the values ahead:

IC50 (recombinant BRD4 BD2; [1]) [nM] | IC50 (MDA-MB-436; [2]) [nM] | IC50 (MOLM-13) [nM] | IC50 (recombinant BRD4 BD1; [3]) [nM] | IC50 (recombinant BRD4 BD1; [4]) [nM] | Ki (recombinant BRD4 BD1; [5]) [nM] | IC50 (recombinant BRD4 BD2; [6]) [nM] | Ki (recombinant BRD4 BD2; [7]) [nM] | IC50 (MDA-MB-436; [8]) [nM] | SMILES
 |  |  |  | 28 | 7.8 | 16 | 4.7 | 164 | COc1nc2c(cc1-c1c(C)noc1C)[nH]c1nc(C)nc(N(C)c3cc(C(C)(C)C)nn3C)c12 [compound 315, N-(3-(tert-butyl)-1-methyl-1H-pyrazol-5-yl)-7-(3,5-dimethylisoxazol-4-yl)-6-methoxy-N,2-dimethyl-9H-pyrido[2′,3′:4,5]pyrrolo[2,3-d] pyrimidin-4-amine]
 |  |  |  | 317 | 106 | 311 | 106 | 1020 | COc1nc2c(cc1-c1c(C)noc1C)[nH]c1nc(C)nc(N(C)c3cc(C)nn3C(C)(C)C)c12 [compound 316, N-(1-(tert-butyl)-3-methyl-1H-pyrazol-5-yl)-7-(3,5-dimethylisoxazol-4-yl)-6-methoxy-N,2-dimethyl-9H-pyrido[2′,3′:4,5]pyrrolo [2,3-d]pyrimidin-4-amine]
 |  |  |  | 74 | 27 | 139 | 44 | 1140 | COc1nc2c(cc1-c1c(C)noc1C)[nH]c1nc(C)nc(N(C)c3cccc(C)c3)c12 [compound 317, 7-(3,5-dimethylisoxazol-4-yl)-6-methoxy-N,2-dimethyl-N-(m-tolyl)-9H-pyrido[2′,3′:4,5]pyrrolo[2,3-d] pyrimidin-4-amine]
 |  |  |  | 35 | 12 | 108 | 34 | 299 | COc1nc2c(cc1-c1c(C)noc1C)[nH]c1nc(C)nc(N(C)c3nn(C)c4ncccc34)c12 [compound 318, 7-(3,5-dimethylisoxazol-4-yl)-6-methoxy-N,2-dimethyl-N-(1-methyl-1H-pyrazolo[3,4-b]pyridin-3-yl)-9H-pyrido[2′,3′:4,5]pyrrolo[2,3-d] pyrimidin-4-amine]
 |  |  |  | 102 | 38 | 92 | 27 | 646 | COc1nc2c(cc1-c1c(C)noc1C)[nH]c1nc(C)nc(N(C)c3c(C)cnn3C(C)C)c12 [compound 319, 7-(3,5-dimethylisoxazol-4-yl)-N-(1-isopropyl-4-methyl-1H-pyrazol-5-yl)-6-methoxy-N,2-dimethyl-9H-pyrido[2′,3′:4,5]pyrrolo[2,3-d] pyrimidin-4-amine]
 |  |  |  | 10.2 | 1.8 | 7 | 1.3 | 85 | COc1nc2c(cc1-c1c(C)noc1C)[nH]c1nc(C)nc(N(C)c3cc(C4CC4)nn3C)c12 [compound 320, N-(3-cyclopropyl-1-methyl-1H-pyrazol-5-yl)-7-(3,5-dimethylisoxazol-4-yl)-6-methoxy-N,2-dimethyl-9H-pyrido[2′,3′:4,5]pyrrolo[2,3-d] pyrimidin-4-amine]
 |  |  |  | 482 | 171 | 796 | 239 | 4430 | COc1nc2c(cc1-c1c(C)noc1C)[nH]c1nc(C)nc(N(C)C3CCCC3)c12 [compound 321, N-cyclopentyl-7-(3,5-dimethylisoxazol-4-yl)-6-methoxy-N,2-dimethyl-9H-pyrido[2′,3′:4,5]pyrrolo[2,3-d] pyrimidin-4-amine]
